This is an account of results in US8546102B2, “Methods for determining sodium-proton-exchanger ligand efficiency” (Sanofi, priority 2008, dated 2013).

For data set [1], the target named is T1, hNHE1 (Homo sapiens, UniProt P19634).
T1 construct: expressed in transfected cells
Briefly: Calibration curve of NHE1 activity, compound dilution series in rat plasma. Format: cell-based. On the procedure:
For the cell-based determination of NHE1 ligand efficiency, LAP1 (mouse LTK-cell line) cells stably expressing hNHE1 (see Example 1) were seeded at a density of 25.000 cells/well/100 μl medium (Iscove-medium, 10% FCS, 2 mM L-glutamine, 100 μ/ml penicilline/streptomycine, 50 μg/ml gentamicine, 400 μg/ml G418) on black, clear bottom 96-well microplates (Costar®, Corning Inc., Corning, N.Y.). Cells were incubated overnight at 37° C., 5% CO2 and 90% humidity. The medium was discarded prior to measurement and 100 μl/well dye buffer (20 mM HEPES, pH 7.4 adjusted with KOH, 20 mM NH4Cl, 115 mM choline chloride, 1 mM MgCl2, 1 mM CaCl2, 5 mM KCl, 5 mM glucose, 5 μM BCECF) were added. After incubation for 20 min at 37° C. the cells were washed 3-times with Na^+-free washing buffer (5 mM HEPES, pH 7.4 adjusted with KOH, 133.8 mM choline chloride, 4.7 mM KCl, 1.25 mM CaCl2, 1.25 mM MgCl2, 0.97 mM K2HPO4, 0.23 mM KH2PO4, 5 mM glucose), leaving 90 μl of washing buffer per well. The plasma probes were prepared as followed: 10% (v/v) Na^+-buffer (10 mM HEPES, pH 7.4 adjusted with KOH, 133.8 mM NaCl, 4.7 mM KCl, 1.25 mM MgCl2, 1.25 mM CaCl2, 0.97 mM Na2HPO4, 0.23 mM NaH2PO4, 5 mM glucose) were added to 90% (v/v) rat plasma. High controls (plasma solution without antagonist) and low controls (plasma solution with 20 μM cariporide, 10 μM final concentration) were prepared. A dilution series of cariporide and COMPOUND X in 10% (v/v) Na^+-buffer/90% (v/v) rat plasma was used for a calibration curve to calculate the compound concentration in the rat plasma probes FIGS. 1 and 2). The pH-recovery was measured with a FLIPR (Fluorometric Imaging Plate Reader, Molecular Devices, Sunnyvale, Calif.; laser power 0.3 W, aperture 4, measuring interval 2 s, time of measurement 120 s). During measurement 90 μl of plasma solution were added to the wells. For calculation of NHE1 activity, the increase in fluorescence between the 12th and 32nd s was calculated. The high control was set as 100% activity and the low control as 0% NHE1 activity. Activity (%) of the samples was calculated by a comparison of the controls. Compound plasma levels were calculated in relation to the calibration curve. Additionally, calibration curves were used to calculate the compound plasma levels in the probe sets.

Data set [2] deals with T1, hNHE1. Nature of the data set: NHE1 plasma assay (pH recovery, BCECF/FLIPR) with plasma of treated rats. The data set is classed as cell-based. On the procedure: The animals used for the plasma studied were pretreated as follows: • Animals: Male Sprague Dawley rats (Moellegard) • Body weight: 320-360 g • Anesthesia: Thiopental-Na (Trapanal 100 mg/kg i.p.) • Respiration: 40 Vol % O2 • Blood gases: 32-40 mmHg pCO2 • 80-100 mmHg PO2 • pH 7.35-7.49 • SaO2>96% • Ischemia: 20 min occlusion of LAD (left anterior descending coronary artery) • Reperfusion: 60 min • Body temperature: 36.5° C. • Measurement parameters: myocardial infarct mass mean arterial blood pressure heart rate • compound plasma levels • Blood samples: single probe, 85 min after i.v. injection (end of reperfusion) • or • single probe 200 min after oral treatment (end of reperfusion)
Different amounts of plasma were prepared from groups I to VII 85 mins after injection (groups I-IV, VII) or 200 mins after treatment (groups V-VI) and from untreated rats. Plasma was stored at −20° C. until the analysis was performed.
For the cell-based determination of NHE1 ligand efficiency, LAP1 (mouse LTK-cell line) cells stably expressing hNHE1 (see Example 1) were seeded at a density of 25.000 cells/well/100 μl medium (Iscove-medium, 10% FCS, 2 mM L-glutamine, 100 μ/ml penicilline/streptomycine, 50 μg/ml gentamicine, 400 μg/ml G418) on black, clear bottom 96-well microplates (Costar®, Corning Inc., Corning, N.Y.). Cells were incubated overnight at 37° C., 5% CO2 and 90% humidity. The medium was discarded prior to measurement and 100 μl/well dye buffer (20 mM HEPES, pH 7.4 adjusted with KOH, 20 mM NH4Cl, 115 mM choline chloride, 1 mM MgCl2, 1 mM CaCl2, 5 mM KCl, 5 mM glucose, 5 μM BCECF) were added. After incubation for 20 min at 37° C. the cells were washed 3-times with Na^+-free washing buffer (5 mM HEPES, pH 7.4 adjusted with KOH, 133.8 mM choline chloride, 4.7 mM KCl, 1.25 mM CaCl2, 1.25 mM MgCl2, 0.97 mM K2HPO4, 0.23 mM KH2PO4, 5 mM glucose), leaving 90 μl of washing buffer per well. The plasma probes were prepared as followed: 10% (v/v) Na^+-buffer (10 mM HEPES, pH 7.4 adjusted with KOH, 133.8 mM NaCl, 4.7 mM KCl, 1.25 mM MgCl2, 1.25 mM CaCl2, 0.97 mM Na2HPO4, 0.23 mM NaH2PO4, 5 mM glucose) were added to 90% (v/v) rat plasma.
High controls (plasma solution without antagonist) and low controls (plasma solution with 20 μM cariporide, 10 μM final concentration) were prepared. […]
The pH-recovery was measured with a FLIPR (Fluorometric Imaging Plate Reader, Molecular Devices, Sunnyvale, Calif.; laser power 0.3 W, aperture 4, measuring interval 2 s, time of measurement 120 s). […]
For calculation of NHE1 activity, the increase in fluorescence between the 12th and 32nd s was calculated. […] Activity (%) of the samples was calculated by a comparison of the controls. Compound plasma levels were calculated in relation to the calibration curve.

The target in a further data set is T2, human NHE1 (hNHE1) (Homo sapiens, UniProt P19634).
T2 construct: expressed in transfected cells
Briefly: NHE1 plasma assay (pH recovery, BCECF/FLIPR) with rabbit plasma. The data set is classed as cell-based. An excerpt:
(§1) Plasma samples were obtained from male New Zealand rabbits (2.5-3.5 kg) maintained on standard rabbit chow with 0.3% cariporide (NHE inhibitor). A blood sample was taken after 1 week from the auricular artery for the determination of the plasma concentrations of cariporide. Determination of plasma concentration of cariporide was done as described below:
(§2) The NHE-Gene (SLC9A1, Franchi A. et al., Proc Natl Acad Sci USA., 1986 December; 83(24):9388-92.) was cloned into the pMamneo-vector and introduced into LAP1 (mouse LTK-cell line) cells. Stable cell lines were generated from transfected cells.
(§3) LAP1 (mouse LTK-cell line) cells stably expressing human NHE1 (hNHE1) were seeded with a density of 25.000 cells/well/100 μl medium (Iscove-medium, 10% FCS, 2 mM L-glutamine, 100 u/ml penicilline/streptomycine, 50 μg/ml gentamicine, 400 μg/ml G418) on black, clear bottom 96-well microplates (Costar®, Corning Inc., Corning, N.Y.). Cells were incubated overnight at 37° C., 5% CO2 and 90% humidity. The medium was discarded prior to measurement and 100 μl/well dye buffer (20 mM HEPES, pH 7.4 adjusted with KOH, 20 mM NH4Cl, 115 mM choline chloride, 1 mM MgCl2, 1 mM CaCl2, 5 mM KCl, 5 mM glucose, 5 μM BCECF) were added. After incubation for 20 min at 37° C. the cells were washed 3-times with Na^+-free washing buffer (5 mM HEPES, pH 7.4 adjusted with KOH, 133.8 mM choline chloride, 4.7 mM KCl, 1.25 mM CaCl2, 1.25 mM MgCl2, 0.97 mM K2HPO4, 0.23 mM KH2PO4, 5 mM glucose), leaving 90 μl of washing buffer per well. pH-recovery was measured with a FLIPR (Fluorometric Imaging Plate Reader, Molecular Devices, Sunnyvale, Calif.; laser power 0.3 W, aperture 4, measuring interval 2 s, time of measurement 120 s). During measurement 90 μl of plasma solution (90% animal plasma from animals feeded w/o antagonist, 10% Na^+-buffer: 10 mM HEPES, pH 7.4 adjusted with KOH, 133.8 mM NaCl, 4.7 mM KCl, 1.25 mM MgCl2, 1.25 mM CaCl2, 0.97 mM Na2HPO4, 0.23 mM NaH2PO4, 5 mM glucose) were added to the wells. Due to the Na^+ in the buffer NHE1 starts to transport H^+ out of the cells, leading to an increase in intracellular pH and fluorescence. High control: plasma solution without antagonist. Low control: plasma solution with 20 μM cariporide (10 μM final concentration). Cariporide was added to the plasma after preparation. […] For calibration different amounts of cariporide and the tested antagonists were added to plasma after preparation to determine the efficiency in animal plasma.
(§4) For calculation of NHE1 activity, the increase in fluorescence between the 12th and 32nd s was calculated. The high control was set as 100% activity whereas the low control determines 0% NHE1 activity. %-activity of the samples was calculated by a comparison to the controls.

Test in data set [3]: as above
Format: cell-based, human. The conditions noted are these: male, New Zealand, rabbit, plasma, oral, 0.3 % in chow; rabbits on 0.3% cariporide chow, 1 week; inferred from complete NHE1 block.
From the text: as §1, §2, §3, §4

The mark [4] stands for this setting: rat plasma, 1 mg/kg i.v., 85 min after injection.

“And” between values parts separate entries of the source, which are not always exact repeats. Equal entries are not always repeated. Where two headings read alike, the source gives them in different places.

T1 sequence (P19634 whole entry): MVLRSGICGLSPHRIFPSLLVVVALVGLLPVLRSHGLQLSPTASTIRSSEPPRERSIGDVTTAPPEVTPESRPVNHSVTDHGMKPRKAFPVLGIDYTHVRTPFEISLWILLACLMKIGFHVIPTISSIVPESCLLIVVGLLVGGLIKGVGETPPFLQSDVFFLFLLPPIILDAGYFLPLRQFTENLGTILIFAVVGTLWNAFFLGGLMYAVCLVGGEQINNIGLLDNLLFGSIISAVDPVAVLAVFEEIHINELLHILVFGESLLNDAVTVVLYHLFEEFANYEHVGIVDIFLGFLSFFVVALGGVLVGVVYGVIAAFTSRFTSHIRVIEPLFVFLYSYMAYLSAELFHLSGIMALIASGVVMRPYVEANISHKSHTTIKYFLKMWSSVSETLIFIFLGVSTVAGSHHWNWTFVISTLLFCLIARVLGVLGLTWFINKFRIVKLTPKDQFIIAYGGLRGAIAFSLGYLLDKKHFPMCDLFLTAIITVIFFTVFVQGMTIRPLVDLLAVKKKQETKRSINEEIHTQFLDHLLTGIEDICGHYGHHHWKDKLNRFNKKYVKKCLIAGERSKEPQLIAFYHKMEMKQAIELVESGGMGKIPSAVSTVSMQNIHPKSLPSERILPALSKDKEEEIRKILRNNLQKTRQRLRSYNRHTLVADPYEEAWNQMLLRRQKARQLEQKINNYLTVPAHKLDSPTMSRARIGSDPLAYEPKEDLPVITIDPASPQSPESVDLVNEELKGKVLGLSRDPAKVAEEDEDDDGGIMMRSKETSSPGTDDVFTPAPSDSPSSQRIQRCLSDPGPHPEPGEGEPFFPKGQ
T2 sequence (P19634 whole entry): as above

Take `CC(C)c1ccc(C(=O)NC(=N)N)cc1S(C)(=O)=O` [cariporide]: the EC50 on hNHE1 [1] (calibration curve, dilution series in 90% rat plasma/10% Na+-buffer, LAP1 cells expressing hNHE1, read-out: calculated efficiency in rat plasma (EC50)) was 115 nM; at hNHE1 [1] (rat plasma calibration curve, C corresponds to the EC50 (0.662 = 662 nM for compound X), read-out: Fit parameter C of the calibration curve), 189 nM. Also, the “Fit parameter A of the calibration curve” value on hNHE1 [1] (rat plasma calibration curve) was −7.947. Further, the “Fit parameter B of the calibration curve” value at hNHE1 [1] (rat plasma calibration curve) is on record as 86.547. In addition, at hNHE1 [1] (rat plasma calibration curve), the “Fit parameter D of the calibration curve” value is recorded as −1.239. For the same molecule, the “rel. FI increase mean” value on hNHE1 [2] (low control: rat plasma solution with 10 μM final cariporide) amounted to 3110; on hNHE1 [2] (setting [4]), 7392. In addition, the “Activity [%] mean” value on hNHE1 [2] (low control: rat plasma with 10 μM final cariporide, set as 0% NHE1 activity) is reported as 0%; on hNHE1 [2] (setting [4]) it was 49.95%. Besides, the “block of NHE1 activity” value on human NHE1 (hNHE1) (10 μM cariporide (final) added to plasma) is “complete block”. For the same molecule, on human NHE1 (hNHE1) (low control: rabbit plasma with 10 μM cariporide, high control 14416), the “Fluorescence increase measured between the 12th and 32nd s, Average” value is given as 631. At human NHE1 (hNHE1) (plasma from individual rabbits on 0.3% cariporide chow, sample after 1 week, relative to high/low controls), the “NHE1 Activity [%]” value is −0.63% and −5.45% (2×) and −1.53% and −0.39% and −2.25%. Further, the “block of NHE1 by plasma probes” value on human NHE1 (hNHE1) (plasma from rabbits on 0.3% cariporide chow) was “complete block”. Also, the concentration at 1 week in data set [3] was no less than 10 µM.
